Data: patent US8148391B2 (Cephalon, Inc., priority 2006, dated 2012)

Each compound was assayed against T1, baculovirus-expressed ALK (Homo sapiens, UniProt Q9UM73) (assay: ALK Kinase Assay (ELISA-type, time-resolved fluorescence)). Settings: 1 μM ATP (Km level), 30 ng/ml ALK, 37° C., 15 minutes; read-out: ALK Activity (ALK kinase inhibition, IC50 class).
T1 construct: host or cells: baculovirus expression system
Type: biochemical
Procedure: Briefly, each 96-well plate was coated with 100 μL/well of 10 μg/mL substrate (phospholipase C-γ) in Tris-buffered saline (TBS). […] The reaction was initiated by adding enzyme (30 ng/ml ALK) and was allowed to proceed at 37° C. for 15 minutes. Detection of the phosphorylated product was performed by adding 100 μl/well of Eu-N1 labeled PT66 antibody (Perkin Elmer # AD0041).
Data analysis was performed using ActivityBase (IDBS, Guilford, UK). IC50 values were calculated by plotting percent inhibition versus log10 of the concentration of compound and fitting to the nonlinear regression sigmoidal dose-response (variable slope) equation in XLFit (IDBS, Guilford, UK).

T1 sequence (Q9UM73 19-1620): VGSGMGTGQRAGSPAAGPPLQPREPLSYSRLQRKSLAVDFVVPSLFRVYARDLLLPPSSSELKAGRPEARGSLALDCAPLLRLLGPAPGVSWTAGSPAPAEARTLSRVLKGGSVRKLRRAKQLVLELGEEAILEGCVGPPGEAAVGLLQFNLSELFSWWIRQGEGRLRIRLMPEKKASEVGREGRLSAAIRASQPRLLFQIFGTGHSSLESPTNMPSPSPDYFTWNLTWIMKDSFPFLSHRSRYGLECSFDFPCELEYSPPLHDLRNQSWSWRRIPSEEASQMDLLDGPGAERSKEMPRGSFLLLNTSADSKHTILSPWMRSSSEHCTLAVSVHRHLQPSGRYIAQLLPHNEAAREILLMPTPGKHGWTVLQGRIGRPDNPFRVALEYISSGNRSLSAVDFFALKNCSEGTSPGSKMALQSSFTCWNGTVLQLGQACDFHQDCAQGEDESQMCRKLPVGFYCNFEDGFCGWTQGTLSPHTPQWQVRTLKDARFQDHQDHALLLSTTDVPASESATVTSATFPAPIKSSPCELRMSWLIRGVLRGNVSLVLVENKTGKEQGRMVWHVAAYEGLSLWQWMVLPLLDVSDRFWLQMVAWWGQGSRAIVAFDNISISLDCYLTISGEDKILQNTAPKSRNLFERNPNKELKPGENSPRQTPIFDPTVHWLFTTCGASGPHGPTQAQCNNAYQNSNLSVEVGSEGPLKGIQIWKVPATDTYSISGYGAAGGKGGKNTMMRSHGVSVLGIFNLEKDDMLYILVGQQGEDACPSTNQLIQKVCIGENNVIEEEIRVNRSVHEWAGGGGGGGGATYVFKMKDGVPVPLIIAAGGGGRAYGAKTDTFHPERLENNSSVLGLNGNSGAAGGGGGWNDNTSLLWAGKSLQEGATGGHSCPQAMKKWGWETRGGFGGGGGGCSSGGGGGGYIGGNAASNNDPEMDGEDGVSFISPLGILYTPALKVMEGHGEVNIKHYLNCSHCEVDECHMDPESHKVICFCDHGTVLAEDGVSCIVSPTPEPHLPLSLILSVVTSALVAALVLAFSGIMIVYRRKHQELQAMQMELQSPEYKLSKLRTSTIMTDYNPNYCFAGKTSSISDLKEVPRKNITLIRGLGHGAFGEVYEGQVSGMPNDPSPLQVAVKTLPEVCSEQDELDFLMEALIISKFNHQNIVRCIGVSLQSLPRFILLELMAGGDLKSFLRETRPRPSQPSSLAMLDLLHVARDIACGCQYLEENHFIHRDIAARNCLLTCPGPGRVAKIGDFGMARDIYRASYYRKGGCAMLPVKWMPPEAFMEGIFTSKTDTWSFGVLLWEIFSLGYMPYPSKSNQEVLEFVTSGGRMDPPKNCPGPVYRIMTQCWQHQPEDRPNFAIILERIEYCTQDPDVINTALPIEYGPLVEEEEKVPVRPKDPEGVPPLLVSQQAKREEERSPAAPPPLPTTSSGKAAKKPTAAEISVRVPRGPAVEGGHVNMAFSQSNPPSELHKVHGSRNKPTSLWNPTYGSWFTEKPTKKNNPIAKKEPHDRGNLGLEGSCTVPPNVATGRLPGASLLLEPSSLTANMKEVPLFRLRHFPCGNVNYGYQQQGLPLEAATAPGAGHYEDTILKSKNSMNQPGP

Row | Structure (SMILES) | IC50
1 | CCCNC(=O)c1ccccc1Nc1nc(Nc2ccc3c(c2)CCCC(=O)N3C)ncc1Cl [Example 1025, 2-[5-Chloro-2-(1-methyl-2-oxo-2,3,4,5-tetrahydro-1H-benzo[b]azepin-7-ylamino)-pyrimidin-4-ylamino]-N-propyl-benzamide] | < 100 nM
2 | CCCCNC(=O)c1ccccc1Nc1nc(Nc2ccc3c(c2)CCCC(=O)N3C)ncc1Cl [Example 1030, N-Butyl-2-[5-chloro-2-(1-methyl-2-oxo-2,3,4,5-tetrahydro-1H-benzo[b]azepin-7-ylamino)-pyrimidin-4-ylamino]-benzamide] | < 100 nM
3 | CNC(=O)c1cccc(F)c1Nc1nc(Nc2ccc3c(c2)NC(=O)C(N)CC3(C)C)ncc1Cl (stereo not drawn) [Example 1272, 2-[2-(3-Amino-5,5-dimethyl-2-oxo-2,3,4,5-tetrahydro-1H-1-benzazepin-8-ylamino)-5-chloro-pyrimidin-4-ylamino]-3-fluoro-N-methyl-benzamide] | < 100 nM
4 | CNC(=O)c1cccc(F)c1Nc1nc(Nc2ccc3c(c2)NC(=O)C(NC(=O)CN(C)C)CC3(C)C)ncc1Cl (stereo not drawn) [Example 1285, 2-{5-Chloro-2-[3-(2-dimethylamino-acetylamino)-5,5-dimethyl-2-oxo-2,3,4,5-tetrahydro-1H-1-benzazepin-8-ylamino]-pyrimidin-4-ylamino}-3-fluoro-N-methyl-benzamide] | 100 to 1000 nM
5 | CNC(=O)c1cccc(F)c1Nc1nc(Nc2ccc3c(c2)NC(=O)C(NC(C)=O)CC3(C)C)ncc1Cl (stereo not drawn) [Example 1289, 2-[2-(3-Acetylamino-5,5-dimethyl-2-oxo-2,3,4,5-tetrahydro-1H-1-benzazepin-8-ylamino)-5-chloro-pyrimidin-4-ylamino]-3-fluoro-N-methyl-benzamide] | 100 to 1000 nM
6 | CNC(=O)c1cccc(F)c1Nc1nc(Nc2ccc3c(c2)NC(=O)C(NC(=O)COC)CC3(C)C)ncc1Cl (stereo not drawn) [Example 1292, 2-{5-Chloro-2-[3-(2-methoxy-acetylamino)-5,5-dimethyl-2-oxo-2,3,4,5-tetrahydro-1H-1-benzazepin-8-ylamino]-pyrimidin-4-ylamino}-3-fluoro-N-methyl-benzamide] | 100 to 1000 nM
7 | CNC(=O)c1cccc(F)c1Nc1nc(Nc2ccc3c(c2)NC(=O)C(NC(=O)N2CCCC2)CC3(C)C)ncc1Cl (stereo not drawn) [Example 1295, Pyrrolidine-1-carboxylic acid {8-[5-chloro-4-(2-fluoro-6-methylcarbamoyl-phenylamino)-pyrimidin-2-ylamino]-5,5-dimethyl-2-oxo-2,3,4,5-tetrahydro-1H-1-benzazepin-3-yl}-amide] | 100 to 1000 nM
8 | CNC(=O)c1cccc(F)c1Nc1nc(Nc2ccc3c(c2)NC(=O)C(NC(=O)OC)CC3(C)C)ncc1Cl (stereo not drawn) [Example 1299, {8-[5-Chloro-4-(2-fluoro-6-methylcarbamoyl-phenylamino)-pyrimidin-2-ylamino]-5,5-dimethyl-2-oxo-2,3,4,5-tetrahydro-1H-1-benzazepin-3-yl}-carbamic acid methyl ester] | 100 to 1000 nM
9 | CNC(=O)c1cccc(F)c1Nc1nc(Nc2ccc3c(c2)NC(=O)CCC3)ncc1Cl [Example 1375, 2-[5-Chloro-2-(2-oxo-2,3,4,5-tetrahydro-1H-benzo[b]azepin-8-ylamino)-pyrimidin-4-ylamino]-3-fluoro-N-methyl-benzamide] | 100 to 1000 nM
10 | C#CCNC(=O)c1ccccc1Nc1nc(Nc2ccc3c(c2)CCCC(=O)N3C)ncc1Cl [Example 1388, 2-[5-Chloro-2-(1-methyl-2-oxo-2,3,4,5-tetrahydro-1H-benzo[b]azepin-7-ylamino)-pyrimidin-4-ylamino]-N-prop-2-ynyl-benzamide] | < 100 nM
11 | C#CCN(C)C(=O)c1ccccc1Nc1nc(Nc2ccc3c(c2)CCCC(=O)N3C)ncc1Cl [Example 1390, [5-Chloro-2-(1-methyl-2-oxo-2,3,4,5-tetrahydro-1H-benzo[b]azepin-7-ylamino)-pyrimidin-4-ylamino]-N-methyl-N-prop-2-ynyl-benzamide] | < 100 nM
12 | CCOC(=O)N1CCCOc2ccc(Nc3ncc(Cl)c(Nc4c(F)cccc4C(=O)NC)n3)cc21 [Example 1410, 2-[5-Chloro-4-(2-fluoro-6-methylcarbamoyl-phenylamino)-pyrimidin-2-ylamino]-7,8-dihydro-6H-5-oxa-9-aza-benzocycloheptene-9-carboxylic acid ethyl ester] | 100 to 1000 nM
13 | CCOC(=O)N1CCCOc2cc(Nc3ncc(Cl)c(Nc4c(F)cccc4C(=O)NC)n3)ccc21 [Example 1417, 3-[5-Chloro-4-(2-fluoro-6-methylcarbamoyl-phenylamino)-pyrimidin-2-ylamino]-7,8-dihydro-6H-5-oxa-9-aza-benzocycloheptene-9-carboxylic acid ethyl ester] | 100 to 1000 nM
14 | CNC(=O)c1cccc(F)c1Nc1nc(Nc2ccc3c(c2)OCCCN3C(=O)OCCCN(C)C)ncc1Cl [Example 1426, 3-[5-Chloro-4-(2-fluoro-6-methylcarbamoyl-phenylamino)-pyrimidin-2-ylamino]-7,8-dihydro-6H-5-oxa-9-aza-benzocycloheptene-9-carboxylic acid 3-dimethylamino-propyl ester] | 100 to 1000 nM
15 | CNC(=O)c1cccc(F)c1Nc1nc(Nc2ccc3c(c2)OCCCN3C(=O)OC)ncc1Cl [Example 1431, 3-[5-Chloro-4-(2-fluoro-6-methylcarbamoyl-phenylamino)-pyrimidin-2-ylamino]-7,8-dihydro-6H-5-oxa-9-aza-benzocycloheptene-9-carboxylic acid methyl ester] | 100 to 1000 nM
16 | CNC(=O)c1cccc(F)c1Nc1nc(Nc2ccc3c(c2)OCCCN3C(=O)OC(C)C)ncc1Cl [Example 1432, 3-[5-Chloro-4-(2-fluoro-6-methylcarbamoyl-phenylamino)-pyrimidin-2-ylamino]-7,8-dihydro-6H-5-oxa-9-aza-benzocycloheptene-9-carboxylic acid isopropyl ester] | 100 to 1000 nM

Same assay, conditions: ALK kinase inhibition, 1 μM ATP (Km level); read-out: ALK Activity

Row | Structure (SMILES) | IC50
17 | CN1C(=O)CCCc2cc(Nc3ncc(Cl)c(Nc4ccccc4C(N)=O)n3)ccc21 [Example 7, 2-[5-Chloro-2-(1-methyl-2-oxo-2,3,4,5-tetrahydro-1H-benzo[b]azepin-7-ylamino)-pyrimidin-4-ylamino]-benzamide] | < 100 nM
18 | CNC(=O)c1ccccc1Nc1nc(Nc2ccc3c(c2)CCN(CCOC)CC3)ncc1Cl [Example 34, 2-{5-Chloro-2-[3-(2-methoxy-ethyl)-2,3,4,5-tetrahydro-1H-benzo[d]azepin-7-ylamino]-pyrimidin-4-ylamino}-N-methyl-benzamide] | < 100 nM
19 | CNC(=O)c1cccc(F)c1Nc1nc(Nc2ccc3c(c2)CCN(CCOC)CC3)ncc1Cl [Example 311, 2-{5-Chloro-2-[3-(2-methoxy-ethyl)-2,3,4,5-tetrahydro-1H-benzo[d]azepin-7-ylamino]-pyrimidine-4-ylamino}-3-fluoro-N-methyl-benzamide] | < 100 nM
20 | CNC(=O)c1cccc(Cl)c1Nc1nc(Nc2ccc3c(c2)CCN(CCOC)CC3)ncc1Cl [Example 312, 3-Chloro-2-{5-chloro-2-[3-(2-methoxy-ethyl)-2,3,4,5-tetrahydro-1H-benzo[d]azepin-7-ylamino]-pyrimidine-4-ylamino}-N-methyl-benzamide] | 100 to 1000 nM
21 | CNC(=O)c1cccc(C)c1Nc1nc(Nc2ccc3c(c2)CCN(CCOC)CC3)ncc1Cl [Example 313, 2-{5-Chloro-2-[3-(2-methoxy-ethyl)-2,3,4,5-tetrahydro-1H-benzo[d]azepin-7-ylamino]-pyrimidin-4-ylamino}-3,N-dimethyl-benzamide] | 100 to 1000 nM
22 | CNC(=O)c1cccc(F)c1Nc1nc(Nc2ccc3c(c2)N(CCOC)C(=O)CCC3)ncc1Cl [Example 362, 2-{5-Chloro-2-[1-(2-methoxy-ethyl)-2-oxo-2,3,4,5-tetrahydro-1H-benzo[b]azepin-8-ylamino]-pyrimidin-4-ylamino}-3-fluoro-N-methyl-benzamide] | < 100 nM
23 | CNC(=O)c1ccccc1Nc1nc(Nc2ccc3c(c2)C(C)(C)CCC(=O)N3)ncc1Cl [Example 381, 2-[5-Chloro-2-(5,5-dimethyl-2-oxo-2,3,4,5-tetrahydro-1H-benzo[b]azepin-7-ylamino)-pyrimidin-4-ylamino]-N-methyl-benzamide] | < 100 nM
24 | CNC(=O)c1cccc(Cl)c1Nc1nc(Nc2ccc3c(c2)C(C)(C)CCC(=O)N3)ncc1Cl [Example 382, 3-Chloro-2-[5-chloro-2-(5,5-dimethyl-2-oxo-2,3,4,5-tetrahydro-1H-benzo[b]azepin-7-ylamino)-pyrimidin-4-ylamino]-N-methyl-benzamide] | 100 to 1000 nM
25 | CNC(=O)c1cccc(F)c1Nc1nc(Nc2ccc3c(c2)C(C)(C)CCC(=O)N3)ncc1Cl [Example 396, 2-[5-Chloro-2-(5,5-dimethyl-2-oxo-2,3,4,5-tetrahydro-1H-benzo[b]azepin-7-ylamino)-pyrimidin-4-ylamino]-3-fluoro-N-methyl-benzamide] | < 100 nM
26 | CNC(=O)c1cccc(C)c1Nc1nc(Nc2ccc3c(c2)C(C)(C)CCC(=O)N3)ncc1Cl [Example 399, 2-[5-Chloro-2-(5,5-dimethyl-2-oxo-2,3,4,5-tetrahydro-1H-benzo[b]azepin-7-ylamino)-pyrimidin-4-ylamino]-3,N-dimethyl-benzamide] | 100 to 1000 nM

Same assay, conditions: ALK kinase inhibition, 1 μM ATP; read-out: ALK Activity

Row | Structure (SMILES) | IC50
27 | CNC(=O)c1cccc(F)c1Nc1nc(Nc2ccc3c(c2)NC(=O)CCC3(C)C)ncc1Cl [Example 1574, 2-[5-Chloro-2-(5,5-dimethyl-2-oxo-2,3,4,5-tetrahydro-1H-benzo[b]azepin-8-ylamino)-pyrimidin-4-ylamino]-3-fluoro-N-methyl-benzamide] | 100 to 1000 nM
